The values below come from US11274136B2, “Acylated glucagon analogue” (Zealand Pharma A/S, priority 2015, dated 2022).

Data set [1] can be described thus: Oral glucose tolerance test (OGTT) in mice. In kind it is in vivo. Conditions: male C57BL6/J mice, 30 nmol/kg subcutaneous, blood glucose AUC 0-120 min. The method, then: Effects of the test compounds on glycemic control were determined by an oral glucose tolerance test (OGTT) in 7-8 weeks old male C57BL6/J mice (obtained from Charles River Laboratories, Germany). Animals were housed in groups in individually ventilated cages (Tecniplast green line) with a 12-hour light cycle. They had ad libitum excess to a standard rodent diet (Provimi Kliba 3438) and water. The animals were housed in the test facility for at least one week prior to the OGTT. All experimental protocols concerning the use of laboratory animals were reviewed by a federal Ethics Committee and approved by governmental authorities.
The compounds were first dissolved in 0.1% aqueous ammonia to a nominal concentration of 2 mg/ml, and then diluted to the desired dosing strength in sterile PBS containing 25 mM phosphate buffer, pH 7.4. Compounds were administered in the morning by subcutaneous injection at a dose of 30 nmol/kg and a volume of 5 ml/kg. Control animals received a vehicle injection only. The GLP-1 analogue liraglutide was tested for comparison purposes. Group size was 5 animals per group.
The OGTT was performed 24 h or 48 h after compound administration. Animals were fasted for 10 h before the OGTT but still had ad libitum excess to water. After overnight fasting, a baseline blood sample (0 min) was obtained by tail bleed and blood glucose was measured with a glucometer. […]

Data set [2] can be described thus: Pharmacokinetic parameters after intravenous administration to rats. In kind it is in vivo. Conditions: Han/Wistar, rat, plasma, male Wistar rats, 20 nmol/kg. The method, then:
Pharmacokinetic parameters of the test compounds were determined after intravenous administration to Han/Wistar rats. The acylated GLP-1 analogue semaglutide was also tested for comparison purposes.
Male Wistar rats were obtained from Charles River (Germany) weighing approximately 180 to 210 g at time of arrival at the test facility. Rats were caged in European standard rat cages type IV with light cycle of 12-hour dark and 12-hour light. During the study rats were housed in standard rat cages type III. Both diet Altromin 1324 (Altromin, Germany) and water was administered ad libitum during the whole experimental period. The animals were housed in the test facility for at least 4 days in order to assure proper acclimatization.
The compounds were first dissolved in 0.1% aqueous ammonia to a nominal concentration of 2 mg/ml, and then diluted to the desired dosing strength (10 μM) in sterile PBS containing 25 mM phosphate buffer, pH 7.4. Intravenous injections corresponding to 20 nmol/kg were given via a lateral tail vein.
Blood samples (200 μl) were collected from the periorbital plexus at time points 0.08, 0.25, 0.5, 1, 2, 4, 8, 24, 32 and 48 h post dosing into K3EDTA tubes and centrifuged for 5 minutes at 4° C. within 20 minutes of sampling. Plasma samples (>100 μl) were transferred to 96-well PCR plates, immediately frozen and kept at −20′C until analysed for plasma concentration for the respective GLP-1-glucagon compound using LC-MS/MS. Individual plasma concentration-time profiles were analysed by a non-compartmental approach using ToxKin™ version 3.2 (Unilog IT Services), and the resulting pharmacokinetic parameters were determined.

Data set [3] concerns the target T1, human glucagon-like peptide 1 receptor (GLP-1R) (Homo sapiens, UniProt P43220).
T1 construct: expressed in transfected cells
The experiment in a line: GLP-1 receptor efficacy assay (cAMP AlphaScreen, CHO cells). Conditions: EC50[GLP-1R]/EC50[Glucagon-R], human receptors in CHO-K1. The format is cell-based. The text has this:
The cDNA encoding either the human glucagon receptor (Glucagon-R) (primary accession number P47871) or the human glucagon-like peptide 1 receptor (GLP-1R) (primary accession number P43220) were synthesized and cloned into a mammalian expression vector containing a Zeocin resistance marker.
The mammalian expression vectors encoding the Glucagon-R or the GLP-1-R were transfected into Chinese hamster ovary (CHO) cells by the Attractene method. Stably expressing clones were obtained by Zeocin selection (250 μg/mL) upon limited dilution of cells resistant to the selection pressure. Glucagon-R and GLP-1-R cell clones expressing were picked, propagated and tested in the Glucagon-R and GLP-1-R efficacy assays as described below. […]
CHO cells expressing the human Glucagon-R, or human GLP-1-R were seeded 24 hours prior to the assay at 5000 cells per well in 384-well microtiter plates in culture in 50 μl growth medium. […] After two hours of incubation at room temperature in the dark, the cAMP content was determined applying the AlphaScreen™ cAMP Functional Assay Kit from Perkin-Elmer according to manufacturer instructions. EC50 and relative efficacies compared to reference compounds (glucagon and GLP-1) were calculated applying computer aided curve fitting. The GLP-1/glucagon ratio is calculated as defined earlier.

The term clearance denotes a measure of how efficiently the substance is removed, as volume per time. Higher therefore signals efficient removal. By half-life is commonly meant the time in which the quantity being followed falls by half.

T1 sequence (P43220 24-463): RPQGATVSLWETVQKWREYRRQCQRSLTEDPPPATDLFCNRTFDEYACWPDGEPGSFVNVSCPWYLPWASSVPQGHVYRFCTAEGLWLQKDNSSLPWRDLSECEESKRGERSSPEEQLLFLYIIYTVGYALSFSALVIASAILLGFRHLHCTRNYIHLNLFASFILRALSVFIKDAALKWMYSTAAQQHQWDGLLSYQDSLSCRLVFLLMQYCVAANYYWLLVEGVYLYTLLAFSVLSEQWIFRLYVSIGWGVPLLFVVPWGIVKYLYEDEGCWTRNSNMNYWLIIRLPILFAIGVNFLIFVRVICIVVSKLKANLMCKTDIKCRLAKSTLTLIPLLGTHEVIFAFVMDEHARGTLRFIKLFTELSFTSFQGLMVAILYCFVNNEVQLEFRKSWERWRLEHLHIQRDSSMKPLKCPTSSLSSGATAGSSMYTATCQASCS

Turning to `CC[C@H](C)[C@H](NC(=O)[C@H](Cc1ccccc1)NC(=O)[C@H](CC(=O)O)NC(=O)[C@H](CCCCN)NC(=O)[C@H](C)NC(=O)[C@H](C)NC(=O)[C@H](CCCNC(=N)N)NC(=O)[C@H](CCC(=O)O)NC(=O)[C@H](CC(=O)O)NC(=O)[C@H](CC(C)C)NC(=O)[C@H](Cc1ccc(O)cc1)NC(=O)[C@H](CCCCN)NC(=O)[C@H](CO)NC(=O)[C@H](Cc1ccc(O)cc1)NC(=O)[C@H](CC(=O)O)NC(=O)[C@H](CO)NC(=O)[C@@H](NC(=O)[C@H](Cc1ccccc1)NC(=O)[C@@H](NC(=O)CNC(=O)[C@H](CCC(N)=O)NC(=O)C(C)(C)NC(=O)[C@@H](N)Cc1c[nH]cn1)[C@@H](C)O)[C@@H](C)O)C(=O)N[C@@H](CCC(=O)O)C(=O)N[C@@H](Cc1c[nH]c2ccccc12)C(=O)N[C@@H](CC(C)C)C(=O)N[C@@H](CCC(=O)O)C(=O)N[C@@H](CCCCNC(=O)CNC(=O)CNC(=O)[C@H](CO)NC(=O)CNC(=O)[C@H](CO)NC(=O)CNC(=O)CC[C@H](NC(=O)CCCCCCCCCCCCCCCCC(=O)O)C(=O)O)C(=O)N[C@@H](C)C(N)=O` [Compound 1], the “OGTT AUC 30 nmol/kg 24 h” value in data set [1] (OGTT 24 h after administration) was determined as 56 % CTL. Also, the “OGTT AUC 30 nmol/kg 48 h” value in data set [1] (OGTT 48 h after administration) came out at 74 % CTL. The clearance in data set [2] was 5.4 mL/h/kg. Also, in data set [2] (read-out: Mean Residence Time), the MRT is 19.2 h. Also, the half-life in data set [2] (read-out: Terminal half life (converted)) was 15.2 h. Further, in data set [3], the “Ratio GLP-1/Glucagon” value stood at 0.13.
